Here are results for two compounds from US20100203114A1, “MICELLE ENCAPSULATION OF THERAPEUTIC AGENTS” (WARF - Wisconsin Alumni Research Foundation, priority 2007, published 2010).

The test system of one series is MCF-7. The note with it: reported by the National Cancer Institute; cited from earlier work.
Series [1] concerns PC-3 human prostate cells. Kind of series: In vitro cytotoxicity, resazurin dye. Particulars: Prostate cell, 72 hours. It counts as cell-based. As to the method: (§1) In vitro cytotoxicity studies. […] Cell lines were plated in 96-well plates at an initial density of 3000 cells per well in 90 μL of appropriate media, and maintained at 37° C. under a 5% CO2 atmosphere. […] Drug-loaded micelles or micelles alone were formulated in MilliQ water (following dialysis of DMSO to form the micelles). It was not necessary to dilute the samples further before addition to wells. […] Following, the metabolic rate of cells was determined by using resazurin dye (Sigma-Aldrich).

In series [2] the test system is MCF-7 human breast cancer cells. Kind of series: In vitro cytotoxicity, resazurin dye. It is filed as cell-based. The note with it: MCF7, 72 hours. The method, then:
as §1
(In general: The colour change of resazurin is a common sign of viable cells or microbes.)

A short description of series [3]: 17-AAG loading in PEG-PLA micelles prepared by dialysis (HPLC). It counts as physicochemical. As to the method: Preparation and characterization of drug loaded PEG-PLA micelles. […] For example, 5 mg of 17-AAG and 45 mg of PEG-PLA (10:90 w/w) were dissolved in 10 mL DMAc. The resulting solution was dialyzed against H2O in 3500 MWCO tubing (SpectraPor). Resulting micelles were centrifuged at 5000 g's for 10 min to precipitate unincorporated drug. […] Micelle solutions were concentrated by rotary evaporation at reduced pressure at room temperature, followed by centrification (5000 g's for 10 minutes).
The loading experiments were investigated at 10% w/w to evaluate the suitability of PEG-PLA micelles for solubilizing 17-AAG.

For series [4] the following is noted: dogs; cited from earlier work.
For series [5] the following is noted: cited from earlier work.

Read-outs that look alike come from different tables or passages of the source.

Turning to `C=CCNC1=C2C[C@@H](C)C[C@H](OC)[C@H](O)[C@@H](C)/C=C(\C)[C@H](OC(N)=O)[C@@H](OC)/C=C\C=C(/C)C(=O)NC(=CC1=O)C2=O` [17-AAG, 17-allylamino-17-demethoxygeldanamycin], the concentration for half-maximal inhibition (IC50) with MCF-7 is 0.0126 µM; in series [1] (n = 6, read-out: PC-3 IC50) it was 0.074 ± 0.014 µM; in series [1] (read-out: IC50 in PC-3), 0.074 ± 0.014 µM; in series [2] (n = 6, read-out: MCF-7 IC50), 0.022 ± 0.014 µM; in series [2] (read-out: IC50 in MCF-7), 0.022 ± 0.014 µM. Besides, the “mol 17-AAG:mol PEG-PLA” value in series [3] (0.3 mM PEG-PLA solution) was determined as 0.73±0.09. Further, in series [3] (0.3 mM PEG-PLA solution, initial 17-AAG 0.45 mg/mL (11.4% w/w)), the 17-AAG solubilized came out at 0.083 ± 0.012 mg/mL. For the same compound, the 17-AAG loaded in series [3] (0.3 mM PEG-PLA, weight 17-AAG versus total weight of carrier) worked out at 0.024 ± 0.003 mg/mg. In series [3] (PEG-PLA (12:6 kDa) micelles), the 17-AAG loading efficiency amounted to 19±3 % w/w. In series [3] (PEG-PLA (12:12 kDa) micelles, with and without alpha-tocopherol), this compound registered a drug loading of less than 0.5 mg/mL. The “time after which drug precipitated out of solution” value in series [3] (micelles incorporating 1:1 alpha-tocopherol to drug, even at 4° C.) lay within 4 to 5 h. Moreover, in series [3] (total drug solubilized versus initial drug concentration), the Efficiency is given as 19 ± 3% loaded. For the same compound, the maximum tolerated dose in series [4] is recorded as 100-200 mg/m^2/day. Also, the “solubility of 17-AAG” value in series [5] (according to the National Cancer Institute) is approximately 10 µg/mL. Moreover, the aqueous solubility entry in series [5] is listed as “about 0.1 mg/mL”. Further, the water solubility result in series [5] (neutral pH) is listed as “about 0.1 mg/mL”.
As to `CO[C@H]1/C=C\C=C(/C)C(=O)NC2=CC(=O)C(NCCN(C)C)=C(C[C@@H](C)C[C@H](OC)[C@H](O)[C@@H](C)/C=C(\C)[C@@H]1OC(N)=O)C2=O` [17-DMAG, 17-dimethylamino-ethylamino-17-demethoxygeldanamycin], the maximum tolerated dose in series [4] is listed as 8 mg/m^2/day.

Broadly, the IC50 is the concentration that inhibits the measured activity by half.
